Patent US12644045B2, “Fluorescent compounds and application thereof” (The Hong Kong University of Science and Technology, priority 2020, dated 2026)

Assays:
[1] = Photophysical properties (PL emission, quantum yield, AIE); assay type: physicochemical; conditions: for aggregation induced emission (AIE): THF/water mixtures with increasing water fraction
Protocol: FIG. 16A Normalized absorption and PL spectra of TBSM in THF solution (c=10^−5 M) and FIG. 16B Normalized absorption and PL spectra of TBSM in solid state. λex=460 nm.
FIG. 17A PL spectra of TBSM in water/THF mixtures with different water fractions (fw); FIG. 17B Plots of relative PL intensity (αAIE=I/I0, I0=PL intensity in pure THF at 672 nm) vs fw. c=10 μM, λex=460 nm. Insert: the fluorescence pictures of the mixture with fw=50% and 95%.
FIG. 23A Absorption spectra of TBSMCN in THF (c=10^−5 mol/L) and as film. FIG. 23B PL spectra of TBSMCN in THF (c=10^−5 mol/L) and as film, λex=530 nm.
FIG. 24A PL spectra of TBSMCN in H2O/THF mixtures with different water fractions (fw). Concentration: 10^−5 M; λex=530 nm. FIG. 24B Plots of relative emission intensity (I/I0) versus the composition of the mixture, where I0=PL intensity in pure THF at λem=810 nm.
UV spectrum FIG. 27A and PL spectrum FIG. 27B of TBSMPy in film state. λex=560 nm.
UV spectrum FIG. 28A and PL spectrum FIG. 28B of TBSMDPy in film state. λex=580 nm.
The photophysical properties of TBSM were first examined. […] TBSM gave a much brighter red emission in toluene solution with an emission wavelength at 605 nm and a QY of 67.9%. While in THF solution, the emission wavelength red-shifted to 669 nm with a QY of 4.1%.
We then investigated the luminescence behavior of TBSM in the mixture of THF and water to see whether it is AIE-active. When adding water into the THF solution, the photoluminescence (PL) intensity decreased with the water fraction (fw) in a range of 0-50%. In this case, the TICT effect dominated the photophysical process and reduced the emission intensity. When the fw exceeded 50%, the TBSM molecule began to aggregate and made the local microenvironment less polar. Therefore, the conformation rigidification became dominated and reversed the PL intensity from weak to strong.
To gain an insight to the details of the photophyscial properties of TBSM, we analyzed its crystal structure. TBSM molecules also show bright emission in the solid state since the locked nonplanar conformation can avoid the strong intermolecular π-π interactions. Indeed, no strong intermolecular π-π stacking has been observed in the crystal packing of TBSM. However, multiple intermolecular non-covalent interactions such as S . . . π, C≡N . . . π, C—H . . . N, C—H . . . S, and intermolecular hydrogen bonding interactions were observed which helps lock the solid-state molecular motion.
The photophysical properties of TBSMCN were investigated. […] In the film, the ICT peak further red shifted to 580 nm. […] TBSMCN was also AIE-active, showing increased PL emission intensity in the mixture of THF and water as the water fraction increased (FIG. 24A and FIG. 24B).
The photophysical properties of TBSMPy and TBSMDPy were studied. In the film state, they had absorption peaks around 400 nm and 580 nm. The emission peaks were at 750 nm with high QY of 16.3% and 25.0% for TBSMPy and TBSMDPy, respectively (FIGS. 27 and 28).

[2] = test system: lipid droplets (LDs) in Hela cells; experiment: Co-localization with BODIPY 493/503 in live Hela cells (confocal imaging); assay type: cell-based; conditions: 2 μM TBSM 1 h, co-stained with BODIPY 493/503
Protocol: FIG. 19 Confocal fluorescent images of live HeLa cell stained with 2 μM TBSM (1 h) and 1 μg/mL BODIPY (1 h). TBSM: λex=488 nm, λem=550-650 nm; BODIPY: λex=488 nm, λem=490-535 nm. Scale bar=20 μm. The number on the figure is colocalization coefficient.
To confirm the specificity of the TBSM for LDs imaging, the co-localization experiments were then carried out by incubating Hela cells with TBSM and BODIPY 493/503, a commercial dye for LDs.

[3] = test system: LDs in the yolk sac of zebrafish embryos; experiment: In vivo zebrafish embryo imaging; conditions: 3-day-old zebrafish embryos, stained for 30 min
Protocol: FIG. 22 In vivo zebrafish embryo imaging stained with TBSM (1 μM, […]), λex=488 nm, λem=550-650 nm. The right is the enlarged part of white frame in the left.
Yolk sac as a neutral lipid and polar phospholipids storage organ provides energy for the upgrowth of zebrafish. Intense red fluorescence signals originating from the yolk sac in 3-day-old zebrafish embryos were observed after stained with TBSM for 30 min (FIG. 22).

[4] = test system: LDs of liver tissues of mice; experiment: Ex vivo co-staining with BODIPY in high-fat feeding mice liver tissue; conditions: TBSM 2 μM 1 h, BODIPY 2 μM 1 h
Protocol: FIG. 20 Co-stained ex vivo confocal one-photon (λex=488 nm) images TBSM (2 μM, 1 h) and BODIPY (2 μM, 1 h) in high-fat feeding mice liver tissue. TBSM: λex=488 nm, λem=550-650 nm; BODIPY: μex=488 nm, λem=490-535 nm. Scale bar: 10 μm. The number on the picture is colocalization coefficient.

[5] = test system: A549 and Hela cells; experiment: Live cell staining of A549 and Hela cells; assay type: cell-based; conditions: 2 μM, 1 h

## N#CC(C#N)=C1Sc2c(c(-c3ccc(N(c4ccccc4)c4ccccc4)cc3)c3nsnc3c2C#N)S1 [TBSMCN]
[1]
  aggregation induced emission (AIE): AIE-active
[1]; film state
  QY: about 10%

## N#CC(C#N)=C1Sc2c(c(-c3ccc(N(c4ccccc4)c4ccccc4)cc3)c3nsnc3c2C#Cc2cc(C#Cc3cccnc3)cc(C#Cc3cccnc3)c2)S1 [TBSMDPy]
[1]; film state
  QY: 25.0%
  emission peak: 750 nm

## N#CC(C#N)=C1Sc2c(c(-c3ccc(N(c4ccccc4)c4ccccc4)cc3)c3nsnc3c2C#Cc2ccncc2)S1 [TBSMPy]
[1]; film state
  QY: 16.3%
  emission peak: 750 nm

## N#CC(C#N)=C1Sc2c(F)c(-c3ccc(N(c4ccccc4)c4ccccc4)cc3)c3nsnc3c2S1 [TBSM]
[2]
  co-localization coefficient: 0.91
[3]
  specificity toward LDs in vivo: highly specific toward LDs
[4]
  co-localization coefficient: 0.97
[5]
  permeability for living cells: fast permeability
[1]; THF solution
  QY: 4.1%
  emission wavelength: 669 nm
[1]
  aggregation induced emission (AIE): exhibits typical AIE property
[1]; solid
  emission wavelength: 670 nm
  quantum yield: 13%
[1]; toluene solution
  QY: 67.9%
  emission wavelength: 605 nm
